Measured values reported in the NIST ThermoML archive (doi:10.1021/je060271a).
± gives the expanded uncertainty stated by the source.

Details: 303.14 K, Liquid, Vibrating tube method

CCCCCCC(=O)OCC(COC(=O)CCCCCC)(COC(=O)CCCCCC)COC(=O)CCCCCC [pentaerythritol tetraheptanoate]
Details | mass density [kg/m3]
5095.7 kPa | 973.9 ± 1.2
5116.9 kPa | 974.1 ± 1.2
5138.3 kPa | 974 ± 1.2
5164.1 kPa | 974 ± 1.2
5185.5 kPa | 974.1 ± 1.2
5207.3 kPa | 974 ± 1.2
5229.7 kPa | 974.1 ± 1.2
5256.1 kPa | 974.1 ± 1.2
5277.9 kPa | 974 ± 1.2
5304.9 kPa | 974 ± 1.2
5328.1 kPa | 974.1 ± 1.2
5350.7 kPa | 974.1 ± 1.2
5374.3 kPa | 974.1 ± 1.2
5402.1 kPa | 974.2 ± 1.2
5425.6 kPa | 974.1 ± 1.2
5450.7 kPa | 974.3 ± 1.2
5475.8 kPa | 974.1 ± 1.2
5504.5 kPa | 974.2 ± 1.2
5528.9 kPa | 974.2 ± 1.2
5554 kPa | 974.3 ± 1.2
5583.9 kPa | 974.3 ± 1.2
5609.1 kPa | 974.3 ± 1.2
5634.4 kPa | 974.3 ± 1.2
5665 kPa | 974.3 ± 1.2
5690.9 kPa | 974.2 ± 1.2
5717.2 kPa | 974.3 ± 1.2
5749 kPa | 974.4 ± 1.2
5776.5 kPa | 974.3 ± 1.2
5804.6 kPa | 974.3 ± 1.2
5832 kPa | 974.4 ± 1.2
5860 kPa | 974.4 ± 1.2
5888.5 kPa | 974.4 ± 1.2
5922.7 kPa | 974.5 ± 1.2
5951.6 kPa | 974.3 ± 1.2
5980.6 kPa | 974.5 ± 1.2
6015.7 kPa | 974.6 ± 1.2
6045.3 kPa | 974.5 ± 1.2
6075.7 kPa | 974.4 ± 1.2
6106.1 kPa | 974.5 ± 1.2
6142.6 kPa | 974.5 ± 1.2
6174.1 kPa | 974.6 ± 1.2
6207 kPa | 974.5 ± 1.2
6238.7 kPa | 974.6 ± 1.2
6270.8 kPa | 974.6 ± 1.2
6309.5 kPa | 974.6 ± 1.2
6342.4 kPa | 974.7 ± 1.2
6375.9 kPa | 974.7 ± 1.2
6416.1 kPa | 974.8 ± 1.2
6447.8 kPa | 974.8 ± 1.2
6476.3 kPa | 974.7 ± 1.2
6510.3 kPa | 974.7 ± 1.2
6539.5 kPa | 974.8 ± 1.2
6568.7 kPa | 974.8 ± 1.2
6598.1 kPa | 974.9 ± 1.2
6633.7 kPa | 974.8 ± 1.2
6664.4 kPa | 974.9 ± 1.2
6695.2 kPa | 974.8 ± 1.2
6725.8 kPa | 974.8 ± 1.2
6762.4 kPa | 974.9 ± 1.2
6793.3 kPa | 975 ± 1.2
6825.6 kPa | 975 ± 1.2
6857.2 kPa | 975 ± 1.2
6895.7 kPa | 975 ± 1.2
6928 kPa | 975 ± 1.2
6961.5 kPa | 975 ± 1.2
7001.6 kPa | 975.1 ± 1.2
7035.6 kPa | 975.2 ± 1.2
7070.4 kPa | 975.2 ± 1.2
7104.5 kPa | 975.1 ± 1.2
7139.2 kPa | 975.2 ± 1.2
7181.2 kPa | 975.2 ± 1.2
7216.8 kPa | 975.2 ± 1.2
7253.9 kPa | 975.3 ± 1.2
7291.4 kPa | 975.3 ± 1.2
7336.6 kPa | 975.2 ± 1.2
7375.1 kPa | 975.4 ± 1.2
7414.5 kPa | 975.3 ± 1.2
7451.6 kPa | 975.3 ± 1.2
7469.5 kPa | 975.4 ± 1.2
7494.9 kPa | 975.4 ± 1.2
7522.2 kPa | 975.3 ± 1.2
7549.5 kPa | 975.4 ± 1.2
7582.3 kPa | 975.4 ± 1.2
7609.7 kPa | 975.5 ± 1.2
7637.3 kPa | 975.6 ± 1.2
7671.1 kPa | 975.5 ± 1.2
7698.9 kPa | 975.6 ± 1.2
7728.1 kPa | 975.5 ± 1.2
7757.4 kPa | 975.5 ± 1.2
7793.5 kPa | 975.6 ± 1.2
7823.2 kPa | 975.6 ± 1.2
7858.2 kPa | 975.7 ± 1.2
7882.7 kPa | 975.7 ± 1.2
7904.3 kPa | 975.7 ± 1.2
7925.9 kPa | 975.6 ± 1.2
7946.9 kPa | 975.6 ± 1.2
7972.8 kPa | 975.7 ± 1.2
7994 kPa | 975.6 ± 1.2
8016.3 kPa | 975.8 ± 1.2
8042.7 kPa | 975.7 ± 1.2
8064.3 kPa | 975.8 ± 1.2
8087 kPa | 975.8 ± 1.2
8113.3 kPa | 975.8 ± 1.2
8135.7 kPa | 975.8 ± 1.2
8158.3 kPa | 975.8 ± 1.2
8181.6 kPa | 975.8 ± 1.2
8209 kPa | 975.8 ± 1.2
8232.1 kPa | 975.9 ± 1.2
8255.4 kPa | 976 ± 1.2
8283 kPa | 975.9 ± 1.2
8305.8 kPa | 975.8 ± 1.2
8328.7 kPa | 975.9 ± 1.2
